IC50 data for 21 compounds are collected here from patent US20240158394A1, “NEK7 INHIBITORS” (Halia Therapeutics, Inc., priority 2022, published 2024).

Assay [1] deals with full-length recombinant human NEK7 (Homo sapiens (Human), UniProt Q8TDX7). The assay can be described thus: NEK7 Enzymatic Assay. Conditions: casein substrate, [33P]-ATP, 2 hours at room temperature. The format is biochemical. An outline of the steps: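 GST-tagged full-length human NEK7 (Sf9-expressed) with 1 mg/mL casein in HEPES pH 7.5/MgCl2 buffer, 1% DMSO; compounds 10 μM–0.5 nM preincubated 20 min at RT. Reaction started with [^33P]-ATP, 2 h at RT, P81 filter radioactivity read; IC50 from % activity remaining versus vehicle.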
Chain of full-length recombinant human NEK7 (Q8TDX7 whole entry): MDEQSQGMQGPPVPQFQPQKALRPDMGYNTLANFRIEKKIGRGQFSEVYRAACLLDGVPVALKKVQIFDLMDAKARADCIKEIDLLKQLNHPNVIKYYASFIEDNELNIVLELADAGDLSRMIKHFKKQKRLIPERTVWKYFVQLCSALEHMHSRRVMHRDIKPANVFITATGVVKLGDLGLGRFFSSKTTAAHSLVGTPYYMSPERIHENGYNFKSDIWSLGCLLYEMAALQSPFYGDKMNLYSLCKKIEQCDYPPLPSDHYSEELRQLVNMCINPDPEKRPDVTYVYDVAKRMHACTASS

For another assay, the system named is IL-1β release. The assay is described as follows: IL-1β Release Assay. Conditions: Homo sapiens; PMA-treated THP-1 cells, 250 ng/mL LPS then 20 μM nigericin; cleaved IL-1β in media. The class given is cell-based. The protocol:
Approximately 1.5 million THP-1 cells were plated in each well of a 6-well TC plate and incubated with 40 nM PMA in RPMI (10% FBS, 1% Penstrep) for 24 hours. The media was then removed, and cells were rested in RPMI (10% FBS, 1% Penstrep) for 24 hours after which time the media was removed and cells were pre-treated for 2 hours with various concentrations of compounds of interest (typically serial 3-fold dilution in RPMI+5% FBS, concentrations ranging from 1 μM to 0.5 nM) in RPMI (5% FBS). The media was again removed, and cells were incubated with 250 ng/mL LPS and compounds of interest (concentrations as above) in RMPI (5% FBS) for 2 hours. The media was removed for a last time and cells were incubated with 20 μM nigericin and compounds of interest (concentrations as above) in Opti-MEM for 30 minutes. Cell media was then collected and the amount of cleaved IL-1β was determined using a JESS instrument (Protein Simple) and standard protocols. Cleaved Il-1β antibody was obtained from Cell Signaling (catalogue #83186S) and was used at 1:20 dilution in antibody diluent 2. Protein Simple 1× anti-Rabbit HRP secondary antibody was used along with Protein Simple luminol and peroxide for chemiluminescent detection. Primary antibody incubation time was increased from 30 minutes to 60 minutes.

For the compound `CN1CCN(Cc2ccc(NC(=O)Nc3ccc(-c4cn(C5CC5)c5ncnc(N)c45)c4ccncc34)cc2C(F)(F)F)CC1` [Example I-9, 1-(5-(4-amino-7-cyclopropyl-7H-pyrrolo[2,3-d]pyrimidin-5-yl)isoquinolin-8-yl)-3-(4-((4-methylpiperazin-1-yl)-methyl)-3-(trifluoromethyl)-phenyl)urea], the results for the IC50 (in assay [1]; with IL-1β release) were less than 200 nM and less than 100 nM, respectively.

For the compound `Nc1ncnc2c1c(-c1ccc(NC(=O)Nc3cc(C4(C(F)(F)F)CC4)on3)c3nonc13)cn2C1CC1` [Example I-77, 1-(7-(4-amino-7-cyclopropyl-7H-pyrrolo[2,3-d]pyrimidin-5-yl)benzo[c][1,2,5]oxadiazol-4-yl)-3-(5-(1-(trifluoromethyl)-cyclopropyl)isoxazol-3-yl)urea], the figures for the half-maximal inhibitory concentration (IC50) (in assay [1]; in the assay on IL-1β release) were less than 200 nM and less than 100 nM, respectively.

Regarding `Nc1ncnc2c1c(-c1ccc(NC(=O)Nc3cc(C4(C(F)(F)F)CC4)on3)c3ncccc13)cn2C1CC1` [Example I-4, 1-(5-(4-amino-7-cyclopropyl-7H-pyrrolo[2,3-d]pyrimidin-5-yl)quinolin-8-yl)-3-(5-(1-(trifluoromethyl)cyclopropyl)-isoxazol-3-yl)urea], the 50% inhibitory concentration (IC50) (in general, the concentration that gives 50% inhibition) is greater than 2000 nM in assay [1] and greater than 1000 nM with IL-1β release.

Consider `Nc1ncnc2c1c(-c1ccc(NC(=O)Nc3cc(C4(C(F)(F)F)CC4)on3)c3cnccc13)cn2C1CC1` [Example I-8, 1-(5-(4-amino-7-cyclopropyl-7H-pyrrolo[2,3-d]pyrimidin-5-yl)isoquinolin-8-yl)-3-(5-(1-(trifluoromethyl)cyclopropyl)-isoxazol-3-yl)urea], for which the IC50 in assay [1] is less than 200 nM; in the assay with IL-1β release, 100 to 250 nM.

As to `CN1CCC(Oc2ccc(NC(=O)Nc3ccc(-c4cn(C5CC5)c5ncnc(N)c45)n4ccnc34)cc2C(F)(F)F)CC1` [Example I-37, 1-(5-(4-amino-7-cyclopropyl-7H-pyrrolo[2,3-d]pyrimidin-5-yl)imidazo[1,2-a]pyridin-8-yl)-3-(4-((1-methylpiperidin-4-yl)oxy)-3-(trifluorometh-yl)phenyl)urea], the IC50 was less than 200 nM in assay [1] and less than 100 nM in the assay with IL-1β release.

For `Nc1ncnc2c1c(-c1ccc(NC(=O)Nc3cc(C4(C(F)(F)F)CC4)on3)c3nccn13)cn2C1CC1` [Example I-32, 1-(5-(4-amino-7-cyclopropyl-7H-pyrrolo[2,3-d]pyrimidin-5-yl)imidazo[1,2-a]pyridin-8-yl)-3-(5-(1-(trifluoromethyl)-cyclopropyl)isoxazol-3-yl)-urea], the IC50 in assay [1] is less than 200 nM; in the assay on IL-1β release it was greater than 1000 nM.

On to `Nc1ncnc2c1c(-c1ccc(NC(=O)Nc3cc(C4(C(F)(F)F)CC4)on3)c3occc13)cn2C1CC1` [Example I-65, 1-(4-(4-amino-7-cyclopropyl-7H-pyrrolo[2,3-d]pyrimidin-5-yl)benzofuran-7-yl)-3-(5-(1-(trifluoromethyl)cyclopropyl)-isoxazol-3-yl)urea], for which the IC50 is 500 to 2000 nM in assay [1] and greater than 1000 nM in the assay with IL-1β release.

Take `CC(C)(C)c1cc(NC(=O)Nc2ccc(-c3cn(C4CC4)c4ncnc(N)c34)c3nonc23)on1` [Example I-74, 1-(7-(4-amino-7-cyclopropyl-7H-pyrrolo[2,3-d]pyrimidin-5-yl)benzo[c][1,2,5]oxadiazol-4-yl)-3-(3-(tert-butyl)isoxazol-5-yl)urea]: the figures for the IC50 (in assay [1]; in the assay on IL-1β release) were less than 200 nM and less than 100 nM, respectively.

As to `CN1CCN(Cc2ccc(NC(=O)Nc3ncc(-c4cn(C5CC5)c5ncnc(N)c45)n4ccnc34)cc2C(F)(F)F)CC1` [Example I-51, 1-(5-(4-amino-7-cyclopropyl-7H-pyrrolo[2,3-d]pyrimidin-5-yl)imidazo[1,2-a]pyrazin-8-yl)-3-(4-((4-methylpiperazin-1-yl)methyl)-3-(trifluorometh-yl)phenyl)urea], the IC50 in assay [1] is greater than 2000 nM; in the assay on IL-1β release, greater than 1000 nM.

For the compound `CC(C)(C)c1cc(NC(=O)Nc2ccc(-c3cn(C4CC4)c4ncnc(N)c34)c3ccoc23)n(-c2ccccc2)n1` [Example I-62, 1-(4-(4-amino-7-cyclopropyl-7H-pyrrolo[2,3-d]pyrimidin-5-yl)benzofuran-7-yl)-3-(3-(tert-butyl)-1-phenyl-1H-pyrazol-5-yl)urea], the IC50 is 500 to 2000 nM in assay [1] and less than 100 nM in the assay on IL-1β release.

For `CN1CCN(Cc2ccc(NC(=O)Nc3ccc(-c4cn(C5CC5)c5ncnc(N)c45)c4cnoc34)cc2C(F)(F)F)CC1` [Example I-69, 1-(4-(4-amino-7-cyclopropyl-7H-pyrrolo[2,3-d]pyrimidin-5-yl)benzo[d]isoxazol-7-yl)-3-(4-((4-methylpiperazin-1-yl)methyl)-3-(trifluorometh-yl)phenyl)urea], the concentration for half-maximal inhibition (IC50) is less than 200 nM in assay [1] and greater than 1000 nM with IL-1β release.

In the case of `CN1CCN(Cc2ccc(NC(=O)Nc3ccc(-c4cn(C5CC5)c5ncnc(N)c45)c4c3OCC4)cc2C(F)(F)F)CC1` [Example I-53, 1-(4-(4-amino-7-cyclopropyl-7H-pyrrolo[2,3-d]pyrimidin-5-yl)-2,3-dihydrobenzofuran-7-yl)-3-(4-((4-methylpiperazin-1-yl)methyl)-3-(trifluorometh-yl)phenyl)urea], the IC50 was less than 200 nM in assay [1] and less than 100 nM in the assay on IL-1β release.

Turning to `CN1CCC(Oc2ccc(NC(=O)Nc3ccc(-c4cn(C5CC5)c5ncnc(N)c45)c4nonc34)cc2C(F)(F)F)CC1` [Example I-79, 1-(7-(4-amino-7-cyclopropyl-7H-pyrrolo[2,3-d]pyrimidin-5-yl)benzo[c][1,2,5]oxadiazol-4-yl)-3-(4-((1-methylpiperidin-4-yl)oxy)-3-(trifluoromethyl)-phenyl)urea], the IC50 in assay [1] is less than 200 nM; with IL-1β release, less than 100 nM.

For `CC(C)(C)c1cc(NC(=O)Nc2ccc(-c3cn(C4CC4)c4ncnc(N)c34)c3ccoc23)on1` [Example I-63, 1-(4-(4-amino-7-cyclopropyl-7H-pyrrolo[2,3-d]pyrimidin-5-yl)benzofuran-7-yl)-3-(3-(tert-butyl)isoxazol-5-yl)urea], the IC50 in assay [1] was 500 to 2000 nM; with IL-1β release it was 250 to 1000 nM.

Regarding `Nc1ncnc2c1c(-c1ccc(NC(=O)Nc3cc(C4(C(F)(F)F)CC4)on3)c3c1CCO3)cn2C1CC1` [Example I-52, 1-(4-(4-amino-7-cyclopropyl-7H-pyrrolo[2,3-d]pyrimidin-5-yl)-2,3-dihydrobenzofuran-7-yl)-3-(5-(1-(trifluorometh-yl)cyclopropyl)isoxazol-3-yl)urea], the results for the IC50 (in assay [1]; with IL-1β release) were 200 to 500 nM and 250 to 1000 nM, respectively.

In the case of `CN1CCN(Cc2ccc(NC(=O)Nc3ccc(-c4cn(C5CC5)c5ncnc(N)c45)n4cc(C(F)(F)F)nc34)cc2C(F)(F)F)CC1` [Example I-47, 1-(5-(4-amino-7-cyclopropyl-7H-pyrrolo[2,3-d]pyrimidin-5-yl)-2-(trifluoromethyl)-imidazo[1,2-a]pyridin-8-yl)-3-(4-((4-methylpiperazin-1-yl)-methyl)-3-(trifluoromethyl)-phenyl)urea], the results for the half-maximal inhibitory concentration (IC50) (in assay [1]; in the assay on IL-1β release) were greater than 2000 nM and less than 100 nM, respectively.

For the compound `CN1CCN(Cc2ccc(NC(=O)Nc3ccc(-c4nn(C5CC5)c5ncnc(N)c45)n4ccnc34)cc2C(F)(F)F)CC1` [Example I-98, 1-(5-(4-amino-1-cyclopropyl-1H-pyrazolo[3,4-d]pyrimidin-3-yl)imidazo[1,2-a]pyridin-8-yl)-3-(4-((4-methylpiperazin-1-yl)methyl)-3-(trifluorometh-yl)phenyl)urea], the 50% inhibitory concentration (IC50) in assay [1] is less than 200 nM; in the assay on IL-1β release it was less than 100 nM.

Turning to `CN1CCN(Cc2ccc(NC(=O)Nc3ccc(-c4cn(C5CC5)c5ncnc(N)c45)n4ccnc34)cc2C(F)(F)F)CC1` [Example I-34, 1-(5-(4-amino-7-cyclopropyl-7H-pyrrolo[2,3-d]pyrimidin-5-yl)imidazo[1,2-a]pyridin-8-yl)-3-(4-((4-methylpiperazin-1-yl)methyl)-3-(trifluorometh-yl)phenyl)urea], the values for the concentration for half-maximal inhibition (IC50) (in assay [1]; in the assay with IL-1β release) were less than 200 nM and less than 100 nM, respectively.

In the case of `CN1CCN(Cc2ccc(NC(=O)Nc3ccc(-c4cn(C5CC5)c5ncnc(N)c45)c4ccoc34)cc2C(F)(F)F)CC1` [Example I-66, 1-(4-(4-amino-7-cyclopropyl-7H-pyrrolo[2,3-d]pyrimidin-5-yl)benzofuran-7-yl)-3-(4-((4-methylpiperazin-1-yl)-methyl)-3-(trifluoromethyl)-phenyl)urea], the figures for the half-maximal inhibitory concentration (IC50) (in assay [1]; in the assay on IL-1β release) were 200 to 500 nM and less than 100 nM, respectively.

In the case of `CC(C)(C)c1cc(NC(=O)Nc2ccc(-c3cn(C4CC4)c4ncnc(N)c34)n3ccnc23)n(-c2ccccc2)n1` [Example I-11, 1-(5-(4-amino-7-cyclopropyl-7H-pyrrolo[2,3-d]pyrimidin-5-yl)imidazo[1,2-a]pyridin-8-yl)-3-(3-(tert-butyl)-1-phenyl-1H-pyrazol-5-yl)urea], the 50% inhibitory concentration (IC50) in assay [1] was less than 200 nM; in the assay with IL-1β release, less than 100 nM.

Take `CC(C)(C)c1cc(NC(=O)Nc2ccc(-c3cn(C4CC4)c4ncnc(N)c34)n3ccnc23)on1` [Example I-17, 1-(5-(4-amino-7-cyclopropyl-7H-pyrrolo[2,3-d]pyrimidin-5-yl)imidazo[1,2-a]pyridin-8-yl)-3-(3-(tert-butyl)isoxazol-5-yl)urea]: the IC50 in assay [1] was less than 200 nM; in the assay on IL-1β release, less than 100 nM.
